Here are results for 41 compounds from PubChem BioAssay AID504544 (Sanford-Burnham Center for Chemical Genomics, 2011).

The structures appear in SMILES notation.

The assay deals with S. cerevisiae tim23-1 mutant growth, luminescence. In words: growth inhibition of tim23-1 mutant yeast, dose response, counter-screen for tim10-1 yeast inhibitor project, luminescence, uHTS hits (AID 504544).
For `Cc1onc(-c2ccc3c(c2)OCO3)c1-c1ccc2[nH]ccc2c1`, the IC50 was 10.7 µM. Then `O=C(NC(=S)Nc1ccccc1N1CCCC1)c1ccc([N+](=O)[O-])cc1`, with 19.3 µM; and `O=C(O)/C=C/C(=O)c1ccc2c(c1)CCc1ccccc1-2`, with 5.09 µM; and `O=C(c1ccc2c3n(nc2c1)-c1ccccc1CO3)N1CCCCC1`, with 9.67 µM. Consider `O=C(/C=C/c1ccc2c(c1)OCCCO2)c1ccccc1O`, for which the IC50 was 18.3 µM. The result for `COc1ccc2cc3cc(C(=O)NCCN4CCc5ccccc5C4)oc3nc2c1` reads 3.34 µM. The result for `Cc1ccc(NC(=S)Nc2ccc(Cl)c(Cl)c2)c(OC(F)F)c1` reads 14.4 µM; that for `Nc1nc(-c2ccc(Br)cc2)cs1`, 17.6 µM. As for `COC(=O)c1c(N2C(=O)CC(Sc3ccccc3C(=O)O)C2=O)sc2c1CCCC2` (stereo unspecified), the IC50 is 3.13 µM. As to `Nc1c(C(=O)Nc2ccccc2)c2nc3ccccc3nc2n1CCCN1CCOCC1`, the IC50 is 12.5 µM. The result for `COc1ccc(Cl)cc1NC(=S)NCCc1ccc(F)cc1` reads 12.5 µM; that for `CC(C)Nc1nnc(Sc2ccc(Cl)cc2[N+](=O)[O-])s1`, 2.66 µM.

As for `Nc1ccccc1C(=O)/C=C/c1ccc2c(c1)OCO2`, the IC50 was 18.9 µM. In the case of `Fc1ccccc1CNC(=S)Nc1cccc(C(F)(F)F)c1`, the half-maximal inhibitory concentration (IC50) is 11.8 µM.

As to `COc1ccc(-c2nncnn2)cc1`, the IC50 is 3.86 µM.

`N/C(Cc1ccc(Cl)cc1Cl)=N\OC(=O)Cc1ccc(Cl)cc1`: the IC50 was 1.39 µM. In the case of `Fc1ccc(CNC(=S)Nc2cccc(C(F)(F)F)c2)cc1`, the IC50 was 12.3 µM.

Consider `Cc1ccc(NC2=C/C(=N\S(=O)(=O)c3cccs3)c3ccccc3C2=O)c(C)c1`, for which the IC50 was 11.9 µM.

As to `O=C(Nc1cccc(N2C(=O)C=CC2=O)c1)c1cccs1`, the IC50 was 2.52 µM.

As to `N#C/C(=N/Nc1ccc(OC(F)(F)F)cc1)C(N)=S`, the IC50 is 1.31 µM. Consider `C/C(=N\NC(=S)NCc1ccccc1)c1ccc(Cl)s1`, for which the IC50 is 17.5 µM. With `CCCOc1ccc(N2C(=O)CC(N3CCC(O)(c4cccc(C(F)(F)F)c4)CC3)C2=O)cc1` (stereo unspecified), the IC50 is 7.41 µM. Turning to `Clc1ccc(CNc2nc(CN3CCOCC3)nc3scc(-c4ccccc4)c23)cc1`, the IC50 is 11.4 µM.

`CCCCCCC(=O)N(O)C1CC(=O)N(c2ccc(C)cc2)C1=O` (stereo unspecified): the IC50 is 6.88 µM. `O=c1c2ccccc2nc(/C=C/c2ccc([N+](=O)[O-])o2)n1CCCO`: the IC50 is 5.81 µM. On to `CC[C@@H]1CC=C[C@H]2[C@H]1C(=O)N(Cc1ccccc1)[C@H]2c1ccoc1`, for which the concentration for half-maximal inhibition (IC50) was 7.42 µM. As to `COc1ccc(C(=O)Nc2ccc(-n3nncc3C(C)(C)C)cc2)cc1`, the IC50 was 8.87 µM. The result for `COc1ccc(C(=O)O/N=C(\N)c2ccccc2Cl)cc1OC` reads 12.1 µM; that for `O=C1CS(=O)(=O)N(Cc2cccc(F)c2)c2ccc(Br)cc21`, 12.6 µM; that for `COc1cc(C(=O)Nc2ccc(Cl)c(C(F)(F)F)c2)cc(OC)c1OC`, 33.3 µM.

As to `COc1ccc(Br)cc1[C@H]1[C@H]2C=CC[C@@H](C)[C@@H]2C(=O)N1Cc1ccccc1`, the IC50 is 16.3 µM. Then `CCOC(=O)c1ccc(N=c2ssnc2Cl)cc1`, with 2.22 µM; and `COc1ccc(/C(N)=N/OC(=O)c2ccc3c(c2)OCO3)cc1`, with 7.52 µM.

Consider `O=C(/C=C\c1ccc(-c2ccccc2)o1)c1ccccc1`, for which the IC50 was 3.01 µM.

Consider `CCOc1ccc(-n2cc(-c3ccccc3)c3c(=O)[nH]cnc32)cc1`, for which the IC50 is 13.8 µM. Then `Cn1c(Cl)cnc1C1CC(=O)c2cc(Cl)ccc2O1` (stereo unspecified), with 4.44 µM; and `Cc1ccc(F)c([C@H]2[C@@H]3C=CCC[C@@]3(C)C(=O)N2Cc2ccccc2)c1`, with 18.4 µM; and `CCOC(=O)c1ccc(NC(=O)CC2OCCN(CC)C2=O)cc1` (stereo unspecified), with 2.02 µM. The result for `COc1ccc(C(=O)O/N=C(\N)c2ccc(Br)cc2)cc1` reads 14.4 µM; that for `Cc1cccc(NC(=O)c2ccc([N+](=O)[O-])s2)n1`, 1.55 µM; that for `COc1ccc(C(=O)O/N=C(\N)c2ccc(Cl)cc2)cc1`, 7.13 µM.

In general, IC50 refers to the point on the concentration scale where inhibition reaches its midpoint.
